Reference: article PMC11845761, “Intestinal human carboxylesterase 2 (CES2) expression rescues drug metabolism and most metabolic syndrome phenotypes in global Ces2 cluster knockout mice” (Acta Pharmacologica Sinica, 2024)
Like-named read-outs stand apart in the source and are kept apart here.

How the values were obtained:
[1] = Plasma pharmacokinetics of vinorelbine and deacetylvinorelbine after oral vinorelbine in CES2-modified mice; assay type: in vivo, mouse; details: mouse, plasma, oral vinorelbine 10 mg/kg, plasma; for AUC(0-t): male, po, 10 mg/kg, read-out: AUC0-4h; for Cmax: read-out: Cmax; for Tmax: read-out: Tmax
Procedure: (§1) For capecitabine 2-h experiments, 6–7 female mice received oral capecitabine (500 mg/kg, 10 μL/g), and tail vein blood samples were collected at 0.125, 0.25, 0.5 and 1 h after drug administration. For the vinorelbine 4-h experiment, 6-7 male mice received vinorelbine intravenously (10 mg/kg, 5 μL/g) or orally (10 mg/kg, 10 μL/g) using a blunt-ended needle. Tail vein blood samples were collected at 0.125, 0.25, 0.5, 1 and 2 h after drug administration. […] At the last time point in each experiment (2 or 4 h), mice were anesthetized with 5% isoflurane and blood was collected by cardiac puncture. […] Plasma was isolated from the blood by centrifugation at 9000 × g for 6 min at 4 °C, and the plasma fraction was collected and stored at −30 °C until analysis.
(§2) Concentrations of capecitabine (and its metabolites) and vinorelbine (and its metabolite) in mouse plasma samples and organ homogenates were determined using two independent validated high-performance liquid chromatography-tandem mass spectrometry assays.
(§3) Pharmacokinetic parameters were calculated by non-compartmental methods using the PK solver software. […] Differences were considered statistically significant when P < 0.05. All data are presented as mean ± SD.

[2] = Tissue concentrations of vinorelbine and deacetylvinorelbine 4 h after oral vinorelbine in CES2-modified mice; assay type: in vivo, mouse; details: male, mouse, oral, 10 mg/kg, oral vinorelbine 10 mg/kg
Procedure: as §1, §2, §3

[3] = Tissue concentrations of vinorelbine and deacetylvinorelbine 4 h after i.v. vinorelbine in CES2-modified mice; assay type: in vivo, mouse; details: male, mouse, intravenous, 10 mg/kg, i.v. vinorelbine 10 mg/kg
Procedure: as §1, §2, §3

[4] = design: method as in PMID 11822766; details: 24 patients; oral vinorelbine 80 mg/m^2; cited from earlier work
[5] = Plasma pharmacokinetics of vinorelbine and deacetylvinorelbine after i.v. vinorelbine in CES2-modified mice; details: male, mouse, plasma, iv, 10 mg/kg, AUC0-4h, i.v. vinorelbine 10 mg/kg
Procedure: In order to minimize variation among individuals, mice were fasted for 3 h before drug was administered orally or intravenously. […] For the vinorelbine 4-h experiment, 6-7 male mice received vinorelbine intravenously (10 mg/kg, 5 μL/g) or orally (10 mg/kg, 10 μL/g) using a blunt-ended needle. […] Time points of termination were chosen to allow both reasonable assessment of the plasma exposure of the compound and its main metabolites, and adequate measurement of tissue concentrations. In order to minimize the generation and use of mice, and as no pronounced sex differences were expected, female mice were used for the capecitabine studies and male mice for the vinorelbine studies. Tail vein blood sample collection (~50 μL) was performed using microvettes containing dipotassium-EDTA. All blood samples were rapidly placed on ice to limit any ongoing hydrolysis. At the last time point in each experiment (2 or 4 h), mice were anesthetized with 5% isoflurane and blood was collected by cardiac puncture. Cardiac puncture blood samples (600–800 μL) were collected in Eppendorf tubes containing heparin as an anticoagulant. The mice were then sacrificed by cervical dislocation and brain, liver, kidney, lung, small intestine and testis were rapidly removed. Plasma was isolated from the blood by centrifugation at 9000 × g for 6 min at 4 °C, and the plasma fraction was collected and stored at −30 °C until analysis. Organs were homogenized with 4% (w/v) bovine serum albumin and stored at −30 °C until analysis. Relative metabolite-to-parental drug ratio after drug administration was calculated by determining metabolite tissue concentration relative to corresponding parental drug concentration at the last time point.
as §2
Pharmacokinetic parameters were calculated by non-compartmental methods using the PK solver software. The area under the plasma concentration-time curve (AUC) was calculated using the trapezoidal rule, without extrapolating to infinity. The peak plasma concentration (Cmax) and the time of maximum plasma concentration (Tmax) were estimated from the original (individual mouse) data. One-way analysis of variance (ANOVA) was used when multiple groups were compared and the Tukey’s test post hoc correction was used to accommodate multiple testing. The two-sided unpaired Student’s t-test was used when treatments or differences between two specific groups were compared. Kruskal-Wallis rank test was used for semi-quantitative assessment for (H&E)-staining of white adipose tissue and Oil Red O-staining of liver. All statistical analyses were performed using the software GraphPad Prism 8 (GraphPad Software Inc., La Jolla, CA, USA). All the linear data were log-transformed before statistical tests were applied. Differences were considered statistically significant when P < 0.05. All data are presented as mean ± SD.

[6] = colon, male Ces2^–/– mice, read-out: Ccolon (colon concentration)
[7] = colon, male Ces2^–/–A mice, read-out: Ccolon (colon concentration)
[8] = colon, male Ces2^–/–V mice, read-out: Ccolon (colon concentration)
[9] = colon, male wild-type mice, read-out: Ccolon (colon concentration)
[10] = liver, male Ces2^–/– mice, read-out: Cliver (liver concentration)
[11] = liver, male Ces2^–/–A mice, read-out: Cliver (liver concentration)
[12] = liver, male Ces2^–/–V mice, read-out: Cliver (liver concentration)
[13] = liver, male wild-type mice, read-out: Cliver (liver concentration)
[14] = small intestine contents, male Ces2^–/– mice, read-out: CSIC (small intestine contents concentration)
[15] = small intestine contents, male Ces2^–/–A mice, read-out: CSIC (small intestine contents concentration)
[16] = small intestine contents, male Ces2^–/–V mice, read-out: CSIC (small intestine contents concentration)
[17] = small intestine contents, male wild-type mice, read-out: CSIC (small intestine contents concentration)
[18] = small intestine tissue, male Ces2^–/– mice, read-out: CSI (small intestine tissue concentration)
[19] = small intestine tissue, male Ces2^–/–A mice, read-out: CSI (small intestine tissue concentration)
[20] = small intestine tissue, male Ces2^–/–V mice, read-out: CSI (small intestine tissue concentration)
[21] = small intestine tissue, male wild-type mice, read-out: CSI (small intestine tissue concentration)

AUC(0-t) ([1]; male Ces2^–/– mice): 491 ± 135 ng·h/mL | AUC(0-t) ([1]; male Ces2^–/–A mice): 730 ± 270 ng·h/mL | AUC(0-t) ([1]; male Ces2^–/–V mice): 585 ± 186 ng·h/mL | AUC(0-t) ([1]; male wild-type mice): 362 ± 81 ng·h/mL | Cmax ([1]; male Ces2^–/– mice): 188 ± 63 ng/mL | Tmax ([1]; male Ces2^–/– mice): 1.9 ± 1.9 h | Cmax ([1]; male Ces2^–/–A mice): 333 ± 99 ng/mL | Tmax ([1]; male Ces2^–/–A mice): 1.3 ± 0.9 h | Cmax ([1]; male Ces2^–/–V mice): 243 ± 110 ng/mL | Tmax ([1]; male Ces2^–/–V mice): 2.4 ± 1.5 h | Cmax ([1]; male wild-type mice): 149 ± 59 ng/mL | Tmax ([1]; male wild-type mice): 1.7 ± 0.7 h | concentration at 4 h [2, 6]: 581 ± 175 ng/g | concentration at 4 h [2, 7]: 788 ± 189 ng/g | concentration at 4 h [2, 8]: 608 ± 203 ng/g | concentration at 4 h [2, 9]: 348 ± 136 ng/g | concentration at 4 h [2, 10]: 8470 ± 8150 ng/g | concentration at 4 h [2, 11]: 8520 ± 3440 ng/g | concentration at 4 h [2, 12]: 8300 ± 2000 ng/g | concentration at 4 h [2, 13]: 1530 ± 409 ng/g | concentration at 4 h [2, 14]: 159000 ± 46700 ng/g | concentration at 4 h [2, 15]: 177000 ± 73000 ng/g | concentration at 4 h [2, 16]: 114000 ± 19400 ng/g | concentration at 4 h [2, 17]: 77000 ± 29300 ng/g | concentration at 4 h [2, 18]: 18300 ± 4300 ng/g | concentration at 4 h [2, 19]: 18100 ± 3650 ng/g | concentration at 4 h [2, 20]: 15600 ± 6980 ng/g | concentration at 4 h [2, 21]: 10800 ± 3700 ng/g | concentration at 4 h [3, 6]: 5620 ± 3000 ng/g | concentration at 4 h [3, 7]: 5780 ± 3090 ng/g | concentration at 4 h [3, 8]: 6740 ± 1470 ng/g | concentration at 4 h [3, 9]: 2360 ± 692 ng/g | concentration at 4 h [3, 10]: 23400 ± 6110 ng/g | concentration at 4 h [3, 11]: 24300 ± 3720 ng/g | concentration at 4 h [3, 12]: 24700 ± 4450 ng/g | concentration at 4 h [3, 13]: 12200 ± 4960 ng/g | concentration at 4 h [3, 14]: 40100 ± 25500 ng/g | concentration at 4 h [3, 15]: 47200 ± 30900 ng/g | concentration at 4 h [3, 16]: 48400 ± 27000 ng/g | concentration at 4 h [3, 17]: 27700 ± 13400 ng/g | concentration at 4 h [3, 18]: 5920 ± 1350 ng/g | concentration at 4 h [3, 19]: 5600 ± 644 ng/g | concentration at 4 h [3, 20]: 7680 ± 2240 ng/g | concentration at 4 h [3, 21]: 3470 ± 858 ng/g | AUC(0-t) ([5]; male Ces2^–/– mice): 6040 ± 1950 ng·h/mL | AUC(0-t) ([5]; male Ces2^–/–A mice): 5950 ± 3250 ng·h/mL | AUC(0-t) ([5]; male Ces2^–/–V mice): 9790 ± 5670 ng·h/mL | AUC(0-t) ([5]; male wild-type mice): 8140 ± 4780 ng·h/mL
SMILES: CCC1=C[C@@H]2CN(C1)Cc1c([nH]c3ccccc13)[C@@](C(=O)OC)(c1cc3c(cc1OC)N(C)[C@H]1[C@@](O)(C(=O)OC)[C@H](OC(C)=O)[C@]4(CC)C=CCN5CC[C@]31[C@@H]54)C2 [Vinorelbine, reference compound]
plasma Cmax [4]: 133.4 ± 42.3 ng/mL
